This is an account of results in PMC10570359, “Dietary supplementation of cystinotic mice by lysine inhibits the megalin pathway and decreases kidney cystine content” (Scientific Reports, 2023).

SMILES strings stand for the structures.

Series [1] relates to kidney proximal tubular cells. Briefly: In vivo endocytic tracing with TexasRed-ovalbumin in WT mice. Conditions: 3 weeks diet. The protocol:
We also examined whether apical endocytic trafficking of megalin cargo could be blocked under 5x-L-lysine, using apical endocytic tracing in WT mice with the fluorescent megalin ligand, TexasRed-ovalbumin (TxR-OVA). Normally, mice feed at night hours. To optimize PT exposure to ingested lysine during endocytic tracing performed at day hours, mice were first reprogrammed by adaptation to inverted […]. […] This implied that the extent of competition in cortical PTCs could be greatly underestimated by measured LMWPuria. At higher magnification, contacts of TxR-OVA labeled apical endosomes with lysosomes in cortical PTCs were still visible under 5X-L-Lysine, arguing against a major impairment of apical endosomal trafficking (Fig. 4b). […]
For in vivo endocytic tracing in PTCs, Texas Red-ovalbumin (300 µg, Invitrogen #O23021) was injected intravenously at 20 min before sacrifice. […] Proliferative events in kidney cortex were quantified as described. […] Histological PAS staining and quantification of the frequency of swan-neck lesions were performed as described. Sirius Red staining of paraffine sections and morphometry in total sagittal kidney sections after conversion to red fluorescence were performed as described[53],[54].

A further series relates to Ctns KO mice kidneys. As to the kind of experiment: Kidney histology (swan-neck lesions, Sirius-red fibrosis) in Ctns KO mice. The series is classed as in vivo. Conditions: primary prevention, diet from 2-to-6 months-of-age, control diet ~ 80%. The source says:
By histological survey, no obvious change was evidenced after HE or PAS staining (Supplemental Fig. 4a). We thus scored the abundance of characteristic swan-neck lesions at the glomerulo-tubular junction, a quantitative marker disease, and again found no detectable protection (Supplemental Fig. 4b). However, at 6-months-of-age as baseline, most junctions were already altered (~ 80%), leaving little scope for a potential benefit. […] To look for fibrosis, histological sections at 8 months-of-age were stained with Sirius-red; its signal was automatically divided into three intensity levels over the entire kidney cortex. This quantification disclosed no detectable decrease of Sirius-red staining, thus fibrosis, upon dAAs at this interval (Supplemental Fig. 4c,d).
For in vivo endocytic tracing in PTCs, Texas Red-ovalbumin (300 µg, Invitrogen #O23021) was injected intravenously at 20 min before sacrifice. […] Proliferative events in kidney cortex were quantified as described. […] Histological PAS staining and quantification of the frequency of swan-neck lesions were performed as described. Sirius Red staining of paraffine sections and morphometry in total sagittal kidney sections after conversion to red fluorescence were performed as described[53],[54]. […]
Fo r the significance of swan-necks, please see [26]. Fo r more information on swan-neck quantification, see [22]. […]

For series [2], the system named is kidney proximal tubular cells. Conditions: Ctns KO mice kidneys at 8 months of age.
Protocol: At cellular level, we assessed PT cell death linked to compensatory renewal, by measuring Ki-67 immunolabelling abundance, a validated proliferation index (Fig. 6a)[22].
(a) Proliferative events in PTCs were identified by Ki-67 immunolabelling in confocal images and scored over random fields to cumulative areas of 0.96 mm^2.
For immunofluorescence, antigen retrieval was promoted in citrate buffer, pH 6, at 95 °C for 20 min using a Lab Vision Pretreatment Module™ (Thermo Scientific). Tissue was permeabilized with PBS/0.3% Triton-X100 for 5 min, then for one further hour with 10% bovine serum albumin (BSA)/3% milk to block non-specific sites. […] After washing, sections were further incubated with the appropriate AlexaFluor-secondary antibodies for 1 h at room temperature in 10% BSA/0.3% Triton-X100 and mounted with Faramount aqueous mounting medium (Dako). Sections were imaged on a spinning disk confocal microscope using EC Plan-NeoFluar 40X/1.3 or 100x/1.4 Oil DIC objective (Cell Observer Spinning Disk; Zeiss). Proliferative events in kidney cortex were quantified as described[22].
In series [3] the test system is kidney tubular reabsorption of LMWPs. Also on record: method as in PMID 98829. The conditions noted are these: humans, intravenous injection; cited from earlier work.
Series [4] in a line: Tolerance of prolonged 5x-dAA diets in mice. Conditions: ad libitum 5x-supplemented solid diet, approx. 45 mmoles/kg/day.
Description: Ctns knockout mice (C57BL/6 background) were kindly provided by Dr. Corinne Antignac[18]. […] The same increase was set for L- (and D-) lysine.

As for `NCCCC[C@H](N)C(=O)O` [5x-L-lysine, L-lysine], in series [1] (inverted light cycle), the “distribution of endocytic load from S1/S2 (cortex) to S3 segment (outer medulla)” value is “strong redistribution”. Besides, the “TxR-OVA fluorescence intensity in cortical PTCs” value in series [1] (inverted light cycle (reprogrammed feeding hours), 20 min after injection) is “greatly decreased”. Further, the “swan-neck frequency at 6 months-of-age” value in the series with Ctns KO mice kidneys was ~ 20%. For the same compound, in series [2], the “Ki-67 proliferation index in PTCs” value was “undistinguishable”. For the same compound, in series [3], the “impact on glomerular filtration” value is recorded as “no impact” and the “inhibition of kidney tubular reabsorption of LMWPs” value is listed as “dose-dependent (up to complete) inhibition”. The “tolerance of prolonged diet” value in series [4] is “well tolerated”.
